From patent EP4792811A1, “S1PR4 REGULATOR COMPOUND FOR MUSCLE DISEASE TREATMENT AND APPLICATION THEREOF” (Shengyuan Zetong (Shanghai) Pharmaceutical Co., Ltd, priority 2023, dated 2025) come the findings set out here.

The target of data set [1] is T1, hS1P4 (Homo sapiens, UniProt O95977).
T1 construct: expressed in transfected cells; host or cells: CHO-K1
T1 sequence (O95977 1-384): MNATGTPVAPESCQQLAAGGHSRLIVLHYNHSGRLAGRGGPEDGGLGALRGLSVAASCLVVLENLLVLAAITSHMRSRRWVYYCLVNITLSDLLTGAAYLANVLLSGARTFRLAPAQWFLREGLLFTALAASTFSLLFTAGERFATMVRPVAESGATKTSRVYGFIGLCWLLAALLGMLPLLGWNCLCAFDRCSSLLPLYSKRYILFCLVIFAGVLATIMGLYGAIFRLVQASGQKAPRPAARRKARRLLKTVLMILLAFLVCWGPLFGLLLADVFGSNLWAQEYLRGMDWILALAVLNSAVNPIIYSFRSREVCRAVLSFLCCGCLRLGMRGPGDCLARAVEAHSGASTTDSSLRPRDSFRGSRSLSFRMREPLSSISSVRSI
Put plainly: Tango β-arrestin recruitment assay, Tango-hS1P4-CHO. It counts as cell-based. As to conditions: final concentration 45 µM, 9 serial dilutions at 5-fold intervals; 20 h drug treatment; luciferase readout. The text has this: (§1) The Tango assay detects ligand-dependent GPCR activity through the interaction between β-arrestin and GPCRs. […] The NTEV fragment and the tetracycline transactivator (tTA), an artificial transcription factor, are fused at the C-terminus of the GPCR, while the CTEV fragment is fused to human β-arrestin 2. To enhance the stability of the interaction between GPCR and β-arrestin, a short sequence from the C-terminus of the human arginine vasopressin receptor 2 (V2 tail) is inserted between the GPCR and NTEV. The V2 tail contains multiple GRK phosphorylation sites, which strengthen β-arrestin binding upon phosphorylation. The CTEV fragment carries the stabile point mutation S219P and is truncated at residue 221 to remove the autoinhibitory C-terminal tail. Meanwhile, β-arrestin 2 is truncated to lack the entire C-terminal tail (residues 383-410 deleted). This truncation confers robust stimulus-dependent receptor desensitization, thereby improving detection sensitivity compared with wild-type β-arrestin 2. The UAS reporter construct consists of upstream activating sequence (UAS) elements, a minimal CMV promoter, and a tTA-dependent luciferase reporter gene. Therefore, constructing Tango cells requires the co-transfection of the above three plasmids into host cells. Upon GPCR activation and β-arrestin recruitment, the TEV enzyme at the β-arrestin terminus cleaves tTA from the GPCR C-terminus. The released tTA initiates tTA-dependent luciferase transcription, and compound activity is ultimately determined by measuring luminescence intensity.
(§2) • 1) Tango cell line from was digested from the culture dish respectively. After cell counting, the cells were plated at a density of 10,000 cells per well with […] into a white opaque 96-well plate (add 60 µL D'Hanks to the surrounding wells), and incubated overnight (20 h) in a 5% CO2 incubator at 37°C. The cell density will reach approximately 90% the next day. • 2) After 20 h, 30 µL of serially diluted compound solution was added to each well. The control group was supplemented with 30 µL F12K complete medium. Each group had three replicate wells. • 3) Samples were collected after 20 h of drug treatment.
(§3) (All compounds were tested at a final concentration of 45 µM, with 9 serial dilutions at 5-fold intervals. 1 µM BAF-312 was used as the positive control for S1PR1, and 25 µM BAF-312 was used as the positive control for S1PR4.)
(§4) ^a β-arrestin recruitment activity based on Tango-S1PR1-CHO-K1 and Tango-S1PR4-CHO-K1 cells, expressed as mean EC50 values ± SD. ^b FLIPR assays were performed using S1PR2-CHO and S1PR5-CHO cell lines, expressed as mean EC50 values ± SD. ^c β-arrestin recruitment activity based on PathHunter CHO-K1-S1PR3 cells, expressed as mean EC50 values ± SD. Data are the mean of at least two independent determinations, reported as mean ± SD (standard deviation).
(Arrestin recruitment assays detect the binding of arrestin to an activated receptor.)

Data set [2] concerns the target T2, hS1P1 (Homo sapiens, UniProt P21453).
T2 construct: expressed in transfected cells; host or cells: CHO-K1
As to the kind of experiment: Tango β-arrestin recruitment assay, Tango-hS1P1-CHO. It counts as cell-based. The note with it: final concentration 45 µM, 9 serial dilutions at 5-fold intervals; 20 h drug treatment; luciferase readout.
Description: as §1, §2, §3, §4

Data set [3] concerns Duchenne muscular dystrophy model mice. As to the kind of experiment: In vivo pharmacodynamic test in Duchenne muscular dystrophy model mice (Compound 30). The method, then:
Experimental Animals: A total of 35 Duchenne muscular dystrophy model mice were divided into 6 groups as shown below.
Intragastric administration was initiated from Day 0. Body weight was measured daily during the experiment to adjust the drug dosage. Grip strength tests were performed every 2 days to observe changes in the mice's grip strength until the experiment concluded on Day 21. Changes in the limb grip strength, serum creatine kinase content, and muscle fibrosis/inflammation in the mice were detected as indicators for evaluating drug efficacy.
(§5) The mouse was placed horizontally on the grip test board. The mouse's tail was held and pulled gently in the opposite direction without using excessive force. The tail was gradually pulled until the mouse released the grip force sensor. The maximum value recorded by the grip force sensor is the grip strength. The test was repeated for 3 times and the average value was taken.
(§6) After the completion of administration, blood was collected via the orbital sinus, allowed to stand for 30 minutes, centrifuged at 3000 rpm at 4°C for 15 minutes, and serum was extracted, stored frozen at -20°C, and detected in accordance with the kit instructions.
(§7) After the experiment, the tibialis anterior, extensor digitorum longus, and diaphragm of the mice were harvested, fixed, sectioned, and subjected to HE staining and Sirius Red staining to observe the degree of muscle fibrosis. The slice was subjected to immunofluorescence staining with F4/80 to observe the level of muscle inflammation.

Data set [4] has as its system S1PR4-R82C/NDUFA10-R217W double-mutant mice. As to the kind of experiment: In vivo efficacy in S1PR4-R82C/NDUFA10-R217W double-mutant muscular dystrophy mice. The note with it: 1 mg/kg intragastric once daily. As for the experimental part: Experimental Animals: A total of 34 S1PR4-R82C/NDUFA10-R217W mice were divided into 6 groups as shown below.
Intragastric administration was initiated on Day 0, and body weight was measured daily during the experiment to adjust the drug dosage. Grip strength was measured at the beginning and end of the experiment to observe motor changes in mice. Changes in the limb grip strength, serum creatine kinase content, and muscle fibrosis/inflammation in mice were detected as indicators for evaluating drug efficacy.
as §5, §6, §7

Where [5] appears, read: 1 mg/kg intragastric once daily.

Entries after “also recorded” stand apart in the source; their conditions may differ.

T2 sequence (P21453 whole entry): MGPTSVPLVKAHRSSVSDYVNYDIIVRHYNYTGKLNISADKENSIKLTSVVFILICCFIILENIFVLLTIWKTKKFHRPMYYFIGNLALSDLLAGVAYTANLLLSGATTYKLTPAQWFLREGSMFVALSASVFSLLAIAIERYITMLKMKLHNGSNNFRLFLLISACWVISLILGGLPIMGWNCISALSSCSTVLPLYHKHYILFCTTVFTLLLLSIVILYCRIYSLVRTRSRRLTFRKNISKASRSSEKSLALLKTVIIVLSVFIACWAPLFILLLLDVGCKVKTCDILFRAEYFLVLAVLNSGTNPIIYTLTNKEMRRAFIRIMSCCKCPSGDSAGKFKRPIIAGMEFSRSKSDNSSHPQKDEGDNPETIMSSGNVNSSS

What is called EC50 is the concentration at which the effect is half-maximal. Read a high EC50 as a less potent agent. Turning to `CCc1cc(/C(C)=N/OCc2ccc(-c3cnc(F)cn3)c(C)c2)ccc1CN1CCC(C(=O)O)C1` (stereo not drawn) [Compound 4, (E)-1-(2-ethyl-4-(1-(((4-(5-fluoropyrazin-2-yl)-3-methylbenzyl)oxy)imino)ethyl)benzyl)pyrrolidine-3-carboxylic acid], in data set [1], a half-maximal effect (EC50) was put at 0.0106 ± 0.00119 µM.

For `C/C(=N\OCc1ccc(C2CCCCC2)c(C(F)(F)F)c1)c1ccc(CN2CC(C(=O)O)C2)c(F)c1` [Compound 11], the EC50 in data set [1] worked out at 0.573 ± 0.106 µM; in data set [2], 0.00563 ± 0.00015 µM.

On to `CCc1cc(/C(C)=N/OCc2cccc(C(F)(F)F)c2)ccc1CN1CC(C(=O)O)C1` [Compound 13], for which the response in data set [2] was half-maximal at 5.1 ± 1.51 µM (EC50).

In data set [1], `CCc1cc(/C(C)=N/OCc2ccc3ccccc3c2)ccc1CN1CC(C(=O)O)C1` [Compound 15] returned an EC50 of 0.56 ± 0.185 µM.

`CCc1cc(/C(C)=N/OCc2ccc(OC(C)C)c(C#N)c2)ccc1CN1CC(C(=O)O)C1` [Compound 16, (E)-1-(4-(1-(((3-cyano-4-isopropoxybenzyl)oxy)imino)ethyl)-2-ethylbenzyl)azetidine-3-carboxylic acid] returned a concentration for a half-maximal effect (EC50) in data set [2] of 0.0232 ± 0.0109 µM.

Regarding `CCc1cc(/C(C)=N/OCc2ccc(-c3cncnc3)cc2)ccc1CN1CC[C@H](C(=O)O)C1` [Compound 70, (S, E)-1-(2-ethyl-4-(1-(((4-(pyrimidin-5-yl)benzyl)oxy)imino)ethyl)benzyl)pyrrolidine-3-carboxylic acid], the EC50 in data set [1] came to 0.0362 ± 0.00658 µM.

Take `CCc1cc(/C(C)=N/OCc2ccc(-c3cccs3)cc2)ccc1CN1CC[C@H](C(=O)O)C1` [Compound 73]: in data set [1], the midpoint of the response, the EC50, lay at 0.0107 ± 0.00011 µM.

In the case of `CCc1cc(/C(C)=N/OCc2ccc(-c3cnsc3)cc2)ccc1CN1CC[C@H](C(=O)O)C1` [Compound 74], the EC50 in data set [1] was determined as 0.01313 ± 2e-05 µM.

The compound `CCc1cc(/C(C)=N/OCc2ccc(-c3ccns3)cc2)ccc1CN1CC[C@H](C(=O)O)C1` [Compound 75] registered an EC50 in data set [1] of 0.03417 ± 0.00022 µM. This EC50 lies about 2.6-fold higher than the previous one.

In data set [1], `CCc1cc(/C(C)=N/OCc2ccc(-c3cnc(F)nc3)c(C)c2)ccc1CN1CC[C@H](C(=O)O)C1` [Compound 80, (S, E)-1-(2-ethyl-4-(1-(((4-(2-fluoropyrimidin-5-yl)-3-methylbenzyl)oxy)imino)ethyl)benzyl)pyrrolidine-3-carboxylic acid] registered an EC50 of 0.018 ± 0.000525 µM.

In data set [1], `CCc1cc(/C(C)=N/OCc2ccc(-c3cncnc3C)c(C)c2)ccc1CN1CC[C@H](C(=O)O)C1` [Compound 83, (S, E)-1-(2-ethyl-4-(1-(((3-methyl-4-(4-methylpyrimidin-5-yl)benzyl)oxy)imino)ethyl)benzyl)pyrrolidine-3-carboxylic acid] returned a 50% effective concentration (EC50) of 0.04095 ± 0.00022 µM.

Regarding `CCc1cc(/C(C)=N/OCc2ccc(-c3cnc(F)cn3)c(F)c2)ccc1CN1CC[C@H](C(=O)O)C1` [Compound 88, (S, E)-1-(2-ethyl-4-(1-(((3-fluoro-4-(5-fluoropyrazin-2-yl)benzyl)oxy)imino)ethyl)benzyl)pyrrolidine-3-carboxylic acid], the EC50 in data set [1] was found to be 0.0274 ± 0.00112 µM; in data set [2] it was 3.21 ± 0.112 µM.

Turning to `CCc1cc(/C(C)=N/OCc2ccc(-c3cnc(F)cn3)cc2)ccc1CN1CC[C@H](C(=O)O)C1` [Compound 89], the EC50 in data set [1] is 0.135 ± 0.0178 µM; in data set [2], 5.25 ± 0.235 µM.

In turn, `CCc1cc(/C(C)=N/OCc2ccc(-c3cnc(F)cn3)c(C)c2)ccc1CN1CCC(C(=O)O)CC1` [Compound 90, (E)-1-(2-ethyl-4-(1-(((3-methyl-4-(5-fluoropyrazin-2-yl)-benzyl)oxy)imino)ethyl)benzyl)piperidine-4-carboxylic acid] gave a 50% effective concentration (EC50) in data set [2] of 5.95 ± 0.0728 µM.

As for `CCc1cc(/C(C)=N/OCc2ccc(-c3cnc(F)cn3)c(C)c2)ccc1CN1CC(C(=O)O)C1` [Compound 91, (E)-1-(2-ethyl-4-(1-(((3-methyl-4-(5-fluoropyrazin-2-yl)-benzyl)oxy)imino)ethyl)benzyl)azetidine-3-carboxylic acid], a half-maximal response in data set [2] (EC50) required 0.05445 ± 0.0002 µM. This EC50 is about 110-fold lower than that of the compound before.

Take `CCc1cc(/C(C)=N/OCc2ccc(-c3cnc(F)cn3)c(C)c2F)ccc1CN1CC[C@H](C(=O)O)C1` [Compound 93, (S, E)-1-(2-ethyl-4-(1-(((2-fluoro-4-(5-fluoropyrazin-2-yl)-3-methylbenzyl)oxy)imino)ethyl)benzyl)pyrrolidine-3-carboxylic acid]: the figures for the EC50 in data set [1] and in data set [2] were 0.012 ± 0.001 µM and 0.348 ± 0.0404 µM, respectively.

Take `CCc1cc(/C(C)=N/OCc2cc(C)c(-c3cnc(F)cn3)cc2F)ccc1CN1CC[C@H](C(=O)O)C1` [Compound 94, (S, E)-1-(2-ethyl-4-(1-(((2-fluoro-4-(5-fluoropyrazin-2-yl)-5-methylbenzyl)oxy)imino)ethyl)benzyl)pyrrolidine-3-carboxylic acid]: the results for the concentration for a half-maximal effect (EC50) in data set [1] and in data set [2] were 0.0139 ± 0.00148 µM and 0.614 ± 0.0502 µM, respectively.

For the compound `CCc1cc(/C(C)=N/OCc2ccc(-c3cnc(F)cn3)c(C)c2)ccc1CN1CC[C@@H](C(=O)O)C1` [Compound 95, (R, E)-1-(2-ethyl-4-(1-(((4-(5-fluoropyrazin-2-yl)-3-methylbenzyl)oxy)imino)ethyl)benzyl)pyrrolidine-3-carboxylic acid], the EC50 in data set [1] is 0.0754 ± 0.00572 µM; in data set [2] it was 0.125 ± 0.0145 µM.

Turning to `C[C@]12C=CC(=O)C=C1CC[C@@H]1[C@@H]2[C@@H](O)C[C@@]2(C)[C@H]1CC[C@]2(O)C(=O)CO` [prednisolone, reference compound], the “collagen deposition (collagen area ratio)” value in data set [3] (setting [5]) and in data set [4] (after administration) was “significantly reduced collagen deposition” throughout. The “number of centrally nucleated fibers (HE staining)” value in data set [3] (setting [5]) is given as “significantly reduced”. The “serum creatine kinase level” value in data set [3] (1 mg/kg intragastric once daily, after treatment) is recorded as “significantly reduced”; in data set [4] (after treatment), “no such lowering effect; also recorded: no reduction”. For the same compound, the “body weight growth trend” value in data set [3] (1 mg/kg intragastric once daily, compared with the model group) is on record as “no difference”. Besides, the “macrophage content (F4/80 immunofluorescence, muscle inflammation)” value in data set [3] (intragastric once daily) is listed as “significantly reduced macrophage content”. Also, in data set [4] (after 21 days of treatment), the “grip strength (ratio of grip strength to body weight)” value is on record as “significantly increased”. In data set [4] (compared with the model group), the “body weight gain trend” value is given as “relatively slow”.
